Where two headings read alike, the source gives them in different places.
Key:
[1] = tested on: Pyricularia oryzae Carvara KA301; assay: whole plant or invertebrate; assay type: in vivo; conditions: for pest or weed control at 2 ppm / pest or weed control at 10 ppm / pest or weed control at 50 ppm / pest or weed control at 100 ppm: Pyricularia oryzae, read-out: RCB control value (C.V.); for RCB control value (C.V.): rice blast
[2] = tested on: Botrytis cinerae; assay: Fungicidal activity against cucumber gray mold rot (CGM) disease, control value; assay type: in vivo; conditions: 100 ppm; for pest or weed control at 100 ppm: Botrytis, read-out: CGM control value (C.V.)
[3] = tested on: Phytophthora infestans; assay: whole plant or invertebrate; assay type: in vivo; conditions: for pest or weed control at 2 ppm / pest or weed control at 10 ppm / pest or weed control at 50 ppm / pest or weed control at 100 ppm: Phytophthora infestans, in Solanum lycopersicum, read-out: TLB control value (C.V.); for TLB control value (C.V.): tomato late blight
[4] = tested on: Puccinia recondita; assay: Fungicidal activity against wheat leaf rust (WLR) disease, control value; assay type: in vivo; conditions: for pest or weed control at 2 ppm / pest or weed control at 10 ppm / pest or weed control at 50 ppm / pest or weed control at 100 ppm: read-out: WLR control value (C.V.)
[5] = tested on: Erysiphae graminis; assay: Fungicidal activity against barley powdery mildew (BPM) disease, control value; assay type: in vivo; conditions: for pest or weed control at 2 ppm / pest or weed control at 10 ppm / pest or weed control at 50 ppm / pest or weed control at 100 ppm: 168 h, read-out: BPM control value (C.V.)
[6] = tested on: Rhizoctonia solani AG-1; assay: Fungicidal activity against rice sheath blight (RSB) disease, control value; conditions: for pest or weed control at 2 ppm / pest or weed control at 10 ppm / pest or weed control at 50 ppm / pest or weed control at 100 ppm: Rhizoctonia solani, AG1, in Oryza sativa, read-out: RSB control value (C.V.); for RSB control value (C.V.): rice sheath blight
[7] = Hordeum vulgare, 2 ppm, barley powdery mildew
[8] = Hordeum vulgare, 10 ppm, barley powdery mildew
[9] = Hordeum vulgare, 50 ppm, barley powdery mildew
[10] = Hordeum vulgare, 100 ppm, barley powdery mildew

Compound	pest or weed control at 2 ppm [1] [%]	pest or weed control at 10 ppm [1] [%]	pest or weed control at 50 ppm [1] [%]	pest or weed control at 100 ppm [1] [%]	pest or weed control at 2 ppm [3] [%]	pest or weed control at 10 ppm [3] [%]	pest or weed control at 50 ppm [3] [%]	pest or weed control at 100 ppm [3] [%]	pest or weed control at 2 ppm [6] [%]	pest or weed control at 10 ppm [6] [%]	pest or weed control at 50 ppm [6] [%]	pest or weed control at 100 ppm [6] [%]	pest or weed control at 100 ppm ([2]; cucumber gray mold rot) [%]	pest or weed control at 2 ppm ([4]; 2 ppm, wheat leaf rust) [%]	pest or weed control at 10 ppm ([4]; 10 ppm, wheat leaf rust) [%]	pest or weed control at 50 ppm ([4]; 50 ppm, wheat leaf rust) [%]	pest or weed control at 100 ppm ([4]; 100 ppm, wheat leaf rust) [%]	pest or weed control at 2 ppm [5, 7] [%]	pest or weed control at 10 ppm [5, 8] [%]	pest or weed control at 50 ppm [5, 9] [%]	also measured
CCOc1cc(C=C(Cl)Cl)ccc1OCc1ccccc1/C(=N\OC)C(=O)NC [Example 60, (E)-2-(2-((4-(2,2-dichlorovinyl)-2-ethoxyphenoxy)methyl)phenyl)-2-methoxyimino-N-methylacetamide]	80	96	100	100	70	92	95	100	98	100	100	100									pest or weed control at 100 ppm [2]: 45%; pest or weed control at 2 ppm ([4]; Puccinia recondita, 2 ppm): 95%; pest or weed control at 10 ppm ([4]; Puccinia recondita, 10 ppm): 100%; pest or weed control at 50 ppm ([4]; Puccinia recondita, 50 ppm): 100%; pest or weed control at 100 ppm ([4]; Puccinia recondita, 100 ppm): 100%; pest or weed control at 2 ppm ([5]; 2 ppm): 95%; pest or weed control at 10 ppm ([5]; 10 ppm): 98%; pest or weed control at 50 ppm ([5]; 50 ppm): 100%; pest or weed control at 100 ppm ([5]; 100 ppm): 100%
CO/N=C(/C(=O)OC)c1ccccc1COc1ccc(C)cc1C=C(Br)Br [Example 69, methyl-(E)-2-(2-((2-(2,2-dibromovinyl)-4-methylphenoxy)methyl)phenyl)-2-methoxyiminoacetate]	100	100	100	100	100	100	100	100	100	100	100	100									pest or weed control at 100 ppm [2]: 60%; pest or weed control at 2 ppm ([4]; Puccinia recondita, 2 ppm): 100%; pest or weed control at 10 ppm ([4]; Puccinia recondita, 10 ppm): 100%; pest or weed control at 50 ppm ([4]; Puccinia recondita, 50 ppm): 100%; pest or weed control at 100 ppm ([4]; Puccinia recondita, 100 ppm): 100%; pest or weed control at 2 ppm ([5]; 2 ppm): 100%; pest or weed control at 10 ppm ([5]; 10 ppm): 100%; pest or weed control at 50 ppm ([5]; 50 ppm): 100%; pest or weed control at 100 ppm ([5]; 100 ppm): 100%
CNC(=O)/C(=N/OC)c1ccccc1COc1cc(Br)ccc1C=C(Br)Br [Example 86, (E)-2-(2-((5-bromo-2-(2,2-dibromovinyl)phenoxy)methyl)phenyl)-2-methoxyimino-N-methylacetamide]	30	90	100	100	70	90	98	100	65	98	100	100									pest or weed control at 100 ppm [2]: 40%; pest or weed control at 2 ppm ([4]; Puccinia recondita, 2 ppm): 95%; pest or weed control at 10 ppm ([4]; Puccinia recondita, 10 ppm): 100%; pest or weed control at 50 ppm ([4]; Puccinia recondita, 50 ppm): 100%; pest or weed control at 100 ppm ([4]; Puccinia recondita, 100 ppm): 100%; pest or weed control at 2 ppm ([5]; 2 ppm): 90%; pest or weed control at 10 ppm ([5]; 10 ppm): 100%; pest or weed control at 50 ppm ([5]; 50 ppm): 100%; pest or weed control at 100 ppm ([5]; 100 ppm): 100%
CO/N=C(/C(=O)OC)c1ccccc1CON=C(C)c1cccc(C=C(F)F)c1 [Example 27, methyl-(E)-2-[[[[[2-[3-(2,2-difluorovinyl)phenyl](1-methyl)methylidene]amino]oxy]methyl]phenyl]-2-methoxyiminoacetate]																					RCB control value (C.V.) ([1]; 2 ppm): 90%; RCB control value (C.V.) ([1]; 10 ppm): 97%; RCB control value (C.V.) ([1]; 50 ppm): 100%; RCB control value (C.V.) ([1]; 100 ppm): 100%; CGM control value (C.V.) ([2]; cucumber gray mold rot): 55%; TLB control value (C.V.) ([3]; 2 ppm): 98%; TLB control value (C.V.) ([3]; 10 ppm): 100%; TLB control value (C.V.) ([3]; 50 ppm): 100%; TLB control value (C.V.) ([3]; 100 ppm): 100%; WLR control value (C.V.) ([4]; 2 ppm, wheat leaf rust): 100%; WLR control value (C.V.) ([4]; 10 ppm, wheat leaf rust): 100%; WLR control value (C.V.) ([4]; 50 ppm, wheat leaf rust): 100%; WLR control value (C.V.) ([4]; 100 ppm, wheat leaf rust): 100%; BPM control value (C.V.) ([5]; 2 ppm, barley powdery mildew): 98%; BPM control value (C.V.) ([5]; 10 ppm, barley powdery mildew): 100%; BPM control value (C.V.) ([5]; 50 ppm, barley powdery mildew): 100%; BPM control value (C.V.) ([5]; 100 ppm, barley powdery mildew): 100%; RSB control value (C.V.) ([6]; 100 ppm): 0%
CNC(=O)/C(=N/OC)c1ccccc1COc1ccc(C=C(Cl)Br)cc1 [Example 18, (2E)-2-(2-((4-(2-bromo-2-chlorovinyl)phenoxy)methyl)phenyl)-2-methoxyimino-N-methylacetamide]	100	100	100	100	30	80	100	100	90	98	100	100	45	100	100	100	100	95	98	100	pest or weed control at 100 ppm [5, 10]: 100%
CO/N=C(/C(=O)OC)c1ccccc1COc1cccc(C=C(Cl)Cl)c1 [Example 1, methyl-(E)-2-(2-((3-(2,2-dichlorovinyl)phenoxy)methyl)phenyl)-2-methoxyiminoacetate]	13	50	92	100	80	92	100	100				45	29	98	100	100	100	100	100	100	pest or weed control at 100 ppm [5, 10]: 100%
CNC(=O)/C(=N/OC)c1ccccc1COc1cccc(C=C(Cl)Cl)c1 [Example 2, (E)-2-(2-((3-(2,2-dichlorovinyl)phenoxy)methyl)phenyl)-2-methoxyimino-N-methylacetamide]	90	97	100	100	98	100	100	100				32	34	30	90	98	100	100	100	100	pest or weed control at 100 ppm [5, 10]: 100%
CNC(=O)/C(=N/OC)c1ccccc1CON=C(C)c1cccc(C=C(Br)Br)c1 [Example 24, (E)-2-[[[[[2-[3-(2,2-dibromovinyl)phenyl](1-methyl)methylidene]amino]oxy]methyl]phenyl]-2-methoxyimino-N-methylacetamide]																					RCB control value (C.V.) ([1]; 2 ppm): 98%; RCB control value (C.V.) ([1]; 10 ppm): 100%; RCB control value (C.V.) ([1]; 50 ppm): 100%; RCB control value (C.V.) ([1]; 100 ppm): 100%; CGM control value (C.V.) ([2]; cucumber gray mold rot): 60%; TLB control value (C.V.) ([3]; 100 ppm): 50%; WLR control value (C.V.) ([4]; 2 ppm, wheat leaf rust): 0%; WLR control value (C.V.) ([4]; 10 ppm, wheat leaf rust): 35%; WLR control value (C.V.) ([4]; 50 ppm, wheat leaf rust): 95%; WLR control value (C.V.) ([4]; 100 ppm, wheat leaf rust): 98%; BPM control value (C.V.) ([5]; 2 ppm, barley powdery mildew): 10%; BPM control value (C.V.) ([5]; 10 ppm, barley powdery mildew): 60%; BPM control value (C.V.) ([5]; 50 ppm, barley powdery mildew): 90%; BPM control value (C.V.) ([5]; 100 ppm, barley powdery mildew): 100%; RSB control value (C.V.) ([6]; 2 ppm): 30%; RSB control value (C.V.) ([6]; 10 ppm): 90%; RSB control value (C.V.) ([6]; 50 ppm): 100%; RSB control value (C.V.) ([6]; 100 ppm): 100%
CNC(=O)/C(=N/OC)c1ccccc1COc1ccc(C=C(Br)Br)cc1 [Example 8, (E)-2-(2-((4-(2,2-dibromovinyl)phenoxy)methyl)phenyl)-2-methoxyimino-N-methylacetamide]	90	97	100	100	98	100	100	100				32	7	90	90	98	100	99	100	100	pest or weed control at 100 ppm [5, 10]: 100%

— patent US8410302B2, “Methoxyimino compounds and fungicide composition comprising same” (Kyung Nong Corporation, priority 2007, dated 2013)
